{"source": "paper PMC9317628", "about": "“Secondary Metabolites in the Dendrobium heterocarpum Methanolic Extract and Their Impacts on Viability and Lipid Storage of 3T3-L1 Pre-Adipocytes” (Nutrients, 2022)", "key": {"[1]": {"tested_on": "3T3-L1 cells", "test": "Oil Red O staining, cellular lipid content in differentiating cells", "type": "cell-based, mouse", "settings": "for effect on cellular lipid storage (percentage of Oil Red O-stained cells): 5 µM, 48 h exposure, staining on day 8, vs untreated vehicle control; for IC50: Mus musculus, 3T3-L1, based on percentage of Oil Red O-stained, read-out: IC50 to suppress cellular lipid accumulation", "procedure": "The mouse embryonic 3T3-L1 pre-adipocytes purchased from the American Type Culture Collection (ATCC, Manassas, VA, USA) were cultured at 37 °C with a 5% CO2 stream in a complete Dulbecco’s modified Eagle medium (DMEM) (Gibco, Gaithersburg, MA, USA) that contained 10% fetal bovine serum (FBS; Gibco, Gaithersburg, MA, USA), 1000 units mL^−1 of penicillin/streptomycin (Gibco, Gaithersburg, MA, USA), and 2 mM of L-glutamine (Gibco, Gaithersburg, MA, USA). For adipocyte differentiation, 3T3-L1 cells at 100% confluent were incubated at 37 °C with a 5% CO2 stream for two days in a differentiation medium made of the complete DMEM plus 0.5 mM isobutyl methylxanthine (IBMX) (Sigma Aldrich, St. Louis, MO, USA), 1 µM of dexamethasone (Sigma Aldrich, St. Louis, MO, USA), and 5 µg mL^−1 of insulin (Sigma Aldrich, St. Louis, MO, USA). Then, the medium was replaced with an insulin medium made of the complete DMEM plus 5 µg mL^−1 of insulin, and cells were continuously incubated under the same conditions for another two days. The medium was replaced with the complete DMEM every two days to maintain adipocyte development. Cellular lipid droplets developed along the differentiation program could be observed under a light microscope (Nikon Ts2, Tokyo, Japan). Oil Red O staining was performed to determine the content of lipid droplets in differentiating 3T3-L1 cells. The adipocyte differentiation program as described previously was established, and cells were exposed to each tested compound at 5 µM for 48 h after obtaining 100% confluence. Cells exposed to 0.5% (v/v) DMSO and 20 µM of oxyresveratrol served as untreated vehicle and positive controls, respectively. Tested compounds were diluted in the differentiation medium before testing, in which the concentrations of DMSO were restricted to be lower than 0.5% (v/v). After the treatments, differentiating 3T3-L1 cells on day 8 of the differentiation program were fixed with 10% formalin and incubated with the Oil Red O staining solution (Sigma Aldrich, St. Louis, MO, USA) at an ambient temperature for 1 h. Cells were then washed thrice with distilled water and 60% (v/v) isopropanol (Sigma Aldrich, St. Louis, MO, USA) to remove the excess dye. Oil Red O-stained 3T3-L1 cells were observed using a light microscope (Nikon Ts2, Tokyo, Japan). The cellular Oil Red O content was extracted using absolute isopropanol and measured for absorbance at a 510 nm wavelength by the microplate reader. The percentage of Oil Red O-stained cells was calculated after normalization with the total cellular protein content determined by a BCA protein assay kit (Thermo Scientific, Rockford, CA, USA)."}, "[2]": {"tested_on": "3T3-L1 pre-adipocytes", "test": "MTT cytotoxicity assay (cell viability)", "type": "cell-based, mouse", "settings": "48 h; for non-cytotoxic concentrations: no significant difference from vehicle control; for cytotoxic effect (cell viability vs untreated vehicle control): 5 µM (lowest tested concentration)", "procedure": "(§1) The mouse embryonic 3T3-L1 pre-adipocytes purchased from the American Type Culture Collection (ATCC, Manassas, VA, USA) were cultured at 37 °C with a 5% CO2 stream in a complete Dulbecco’s modified Eagle medium (DMEM) (Gibco, Gaithersburg, MA, USA) that contained 10% fetal bovine serum (FBS; Gibco, Gaithersburg, MA, USA), 1000 units mL^−1 of penicillin/streptomycin (Gibco, Gaithersburg, MA, USA), and 2 mM of L-glutamine (Gibco, Gaithersburg, MA, USA). For adipocyte differentiation, 3T3-L1 cells at 100% confluent were incubated at 37 °C with a 5% CO2 stream for two days in a differentiation medium made of the complete DMEM plus 0.5 mM isobutyl methylxanthine (IBMX) (Sigma Aldrich, St. Louis, MO, USA), 1 µM of dexamethasone (Sigma Aldrich, St. Louis, MO, USA), and 5 µg mL^−1 of insulin (Sigma Aldrich, St. Louis, MO, USA). Then, the medium was replaced with an insulin medium made of the complete DMEM plus 5 µg mL^−1 of insulin, and cells were continuously incubated under the same conditions for another two days. The medium was replaced with the complete DMEM every two days to maintain adipocyte development. Cellular lipid droplets developed along the differentiation program could be observed under a light microscope (Nikon Ts2, Tokyo, Japan). The cytotoxic effect of elucidated compounds from D. heterocarpum on 3T3-L1 cell viability was evaluated using 3-(4,5-dimethylthiazol-2-yl)-2,5-diphenyl tetrazolium bromide (MTT) (Sigma Aldrich, St. Louis, MO, USA) assay. 3T3-L1 cells were seeded in 96-well plates at a density of 2 × 10^3 cells/well and incubated at 37 °C with a 5% CO2 stream until reaching 100% confluent. Cells were then exposed to varying concentrations (5, 10, and 20 µM) of the tested compounds in the complete DMEM for 48 h. Before testing, every tested compound resuspended in absolute dimethyl sulfoxide (DMSO) (Sigma Aldrich, St. Louis, MO, USA) was prepared by dilution using the complete DMEM. The concentration of DMSO in each treatment was limited to <0.5% (v/v). DMSO at 0.5% (v/v) and 20 µM of oxyresveratrol (a known compound with the ability to suppress adipocyte differentiation) were included in the tests as untreated vehicle and positive controls, respectively. After exposure for 48 h, the medium was removed, and the MTT solution (0.45 mg mL^−1), prepared by dissolving in phosphate-buffered saline (PBS), was added. The assay was incubated at 37 °C with a 5% CO2 stream for 3 h. Then, the MTT solution was replaced with absolute DMSO to dissolve the purple formazan crystal that formed, which was further measured for absorbance at a 570 nm wavelength using a microplate reader (Anthros, Durham, NC, USA). The relative absorbance value between treated cells to vehicle control cells was presented as the percentage of cell viability. Non-cytotoxic concentrations of a tested compound were defined based on no significant difference in the percentages of cell viability derived from the treatments and the vehicle control."}, "[3]": {"tested_on": "ERK", "test": "Western blot, ERK phosphorylation ratio", "type": "cell-based, mouse", "settings": "48 h, vs untreated vehicle control", "procedure": "(§2) The impacts of a tested compound on the expression and activation of proteins that are linked to cellular responses in the early phase of adipocyte differentiation were assessed using Western blot analysis. The list of proteins analyzed in this study included adipogenic regulators (i.e., PPARγ and C/EBPα) and the MAPK signaling pathways-mediated proteins (i.e., JNK, ERK, and p38). The expression or activation of each target protein was normalized with β-Actin as a reference cellular protein. The activation of JNK, ERK, and p38 was assessed using the phosphorylation ratio between those phosphorylated (i.e., p-ERK, p-JNK, and p-p38) and the sum of those phosphorylated and non-phosphorylated.\n(§3) 3T3-L1 pre-adipocytes at 100% confluence were exposed for 48 h to a tested compound at non-cytotoxic concentrations prepared in the differentiation medium. Cells were then washed with PBS (pH 7.4) and used for protein extraction by incubation in an ice-cold radio-immunoprecipitation assay buffer (Thermo Scientific, Rockford, CA, USA) supplemented with the protease inhibitor cocktail (Roche Applied Science, Indianapolis, IN, USA) for 45 min. Derived cell lysates were centrifuged at 4 °C, 6440× g for 15 min, and the supernatant was collected. The BCA protein assay kit was conducted to quantify the total protein content in the supernatant. […]"}, "[4]": {"tested_on": "3T3-L1 cells", "test": "Nuclear staining with Hoechst 33342 / propidium iodide (cell death)", "type": "cell-based", "settings": "20 µM, 48 h, Hoechst 33342/PI", "procedure": "3T3-L1 cell death after exposure to varying concentrations of the tested compounds was also determined by the nuclear staining technique. Hoechst 33342 (Sigma Aldrich, St. Louis, MO, USA) and propidium iodide (PI) (Sigma Aldrich, St. Louis, MO, USA) were used as staining dyes. After 48 h of treatment, the assay medium was removed from 3T3-L1 cells and replaced with PBS containing 2 µg mL^−1 of Hoechst 33342 and 1 µg mL^−1 of PI. Cells were stained for 30 min at 37 °C with a 5% CO2 stream and observed/photographed under a fluorescence microscope (Olympus IX51 with DP70, Tokyo, Japan). Bright cells with a disseminated nucleus under both blue and red filters were referred to as dead cells."}, "[5]": {"tested_on": "JNK", "test": "Western blot, JNK phosphorylation ratio", "type": "cell-based, mouse", "settings": "48 h, vs untreated vehicle control", "procedure": "as §2, §3"}, "[6]": {"tested_on": "HeLa cervical cancer cell line", "design": "method as in doi:10.1177/1934578X20908678", "settings": "cited from earlier work"}, "[7]": {"tested_on": "p38", "test": "Western blot, p38 phosphorylation ratio", "type": "cell-based, mouse", "settings": "48 h, vs untreated vehicle control", "procedure": "as §2, §3"}, "[8]": {"tested_on": "C/EBPα", "test": "Western blot, C/EBPα expression at early adipocyte differentiation", "type": "cell-based, mouse", "settings": "10 µM, 48 h in differentiation medium", "procedure": "as §2, §3"}, "[9]": {"tested_on": "PPARγ", "test": "Western blot, PPARγ expression at early adipocyte differentiation", "type": "cell-based, mouse", "settings": "10 µM, 48 h in differentiation medium", "procedure": "as §2, §3"}, "[10]": {"tested_on": "pancreatic lipase", "settings": "cited from earlier work"}, "[11]": {"test": "MTT cytotoxicity assay (cell viability)", "type": "cell-based, mouse", "settings": "mouse, 3T3-L1 pre-adipocytes, 20 µM, relative to vehicle control, read-out: percentage of cell viability", "procedure": "as §1"}, "[12]": {"tested_on": "α-glucosidase", "settings": "cited from earlier work"}, "[13]": {"tested_on": "3T3L-1 cells", "design": "method as in PMID 32571087", "settings": "cited from earlier work"}}}
{"smiles": "COc1ccc(CCc2cc(OC)c(O)c(OC)c2)cc1", "note": "[Compound 1, amoenylin]", "values": [{"measurement": "effect on cellular lipid storage (percentage of Oil Red O-stained cells)", "setting": "[1]", "value": "significantly decrease"}]}
{"smiles": "COC(=O)CCc1ccc(O)cc1", "note": "[Compound 2, methyl 3-(4-hydroxyphenyl) propionate]", "values": [{"measurement": "effect on cellular lipid storage (percentage of Oil Red O-stained cells)", "setting": "[1]", "value": "significantly decrease"}, {"measurement": "non-cytotoxic concentrations", "setting": "[2]", "value": "≤ 10", "unit": "µM"}]}
{"smiles": "COc1ccc(CCc2cc(O)c(O)c(OC)c2)cc1", "note": "[Compound 3, 3,4-dihydroxy-5,4′-dimethoxybibenzyl]", "values": [{"measurement": "ERK phosphorylation", "setting": "[3]; 2.5 µM", "value": "did not affect"}, {"measurement": "ERK phosphorylation", "setting": "[3]; 10 µM", "value": "significantly suppressed"}, {"measurement": "dead cells by nuclear staining", "setting": "[4]", "value": "some dead cells"}, {"measurement": "JNK phosphorylation", "setting": "[5]; 2.5 µM", "value": "did not affect"}, {"measurement": "JNK phosphorylation", "setting": "[5]; 10 µM", "value": "significantly suppressed"}, {"measurement": "cytotoxic effect on HeLa cells", "setting": "[6]", "value": "did not show a cytotoxic effect"}, {"measurement": "effect on cellular lipid storage (percentage of Oil Red O-stained cells)", "setting": "[1]", "value": "significantly decrease"}, {"measurement": "IC50", "setting": "[1]", "value": "6.3 ± 0.1", "unit": "µM"}, {"measurement": "IC50 fold lower than oxyresveratrol", "setting": "[1]; lipid accumulation IC50 ratio to positive control", "value": "approximately 3 fold"}, {"measurement": "p38 phosphorylation", "setting": "[7]; 2.5 µM", "value": "did not affect"}, {"measurement": "p38 phosphorylation", "setting": "[7]; 10 µM", "value": "significantly suppressed"}, {"measurement": "non-cytotoxic concentrations", "setting": "[2]", "value": "≤ 10", "unit": "µM"}, {"measurement": "C/EBPα expression relative to β-Actin", "setting": "[8]", "value": "maximum suppression"}, {"measurement": "PPARγ expression relative to β-Actin", "setting": "[9]", "value": "maximum suppression"}]}
{"smiles": "COc1ccc(CCc2cc(OC)c3c(c2)O[C@@H](c2cc(OC)c(O)c(OC)c2)[C@H](CO)O3)cc1", "note": "[Compound 4, dendrocandin B]", "values": [{"measurement": "effect on cellular lipid storage (percentage of Oil Red O-stained cells)", "setting": "[1]", "value": "absence of its bioactivity to suppress lipid accumulation"}, {"measurement": "pancreatic lipase activity inhibition", "setting": "[10]", "value": "did not hamper"}, {"measurement": "viability at 48 h, 20 µM", "setting": "[11]", "value": "61.3 ± 1.1", "unit": "%"}, {"measurement": "cytotoxic effect (cell viability vs untreated vehicle control)", "setting": "[2]", "value": "significant decrease in cell viability"}, {"measurement": "α-glucosidase activity inhibition", "setting": "[12]", "value": "did not hamper"}]}
{"smiles": "COc1ccc(CCc2cc(OC)c(O)c3c2C(Cc2ccc(OC)cc2)c2cc(O)c(O)c(OC)c2O3)cc1", "note": "(stereo not shown) [Compound 5, dendrofalconerol A]", "values": [{"measurement": "effect on cellular lipid storage (percentage of Oil Red O-stained cells)", "setting": "[1]", "value": "did not exhibit the inhibitory effect on lipid accumulation"}, {"measurement": "pancreatic lipase activity inhibition", "setting": "[10]", "value": "strong capability to inhibit"}, {"measurement": "viability at 48 h, 20 µM", "setting": "[11]", "value": "61.3 ± 1.1", "unit": "%"}, {"measurement": "cytotoxic effect (cell viability vs untreated vehicle control)", "setting": "[2]", "value": "significant decrease in cell viability"}, {"measurement": "α-glucosidase activity inhibition", "setting": "[12]", "value": "strong capability to inhibit"}]}
{"smiles": "COc1cc([C@H]2OC[C@H]3[C@@H]2CO[C@@H]3c2cc(OC)c(O)c(OC)c2)cc(OC)c1O", "note": "[Compound 6, syringaresinol]", "values": [{"measurement": "promotion of glucose uptake", "setting": "[13]", "value": "no function to promote glucose uptake"}, {"measurement": "effect on cellular lipid storage (percentage of Oil Red O-stained cells)", "setting": "[1]", "value": "significantly decrease"}, {"measurement": "non-cytotoxic concentrations", "setting": "[2]", "value": "≤ 10", "unit": "µM"}]}
{"smiles": "Oc1cc(O)cc(/C=C/c2ccc(O)cc2O)c1", "note": "[oxyresveratrol, reference compound]", "values": [{"measurement": "IC50", "setting": "[1]", "value": "20.2 ± 1.2", "unit": "µM"}]}
